Data: patent US20240352000A1, “NOVEL PYRIMIDINE-2,4-DIAMINE DERIVATIVES, PREPARATION METHOD THEREFOR, AND PHARMACEUTICAL COMPOSITION CONTAINING SAME AS ACTIVE INGREDIENT FOR PREVENTION OR TREATMENT OF CANCER” (KOREA RESEARCH INSTITUTE OF CHEMICAL TECHNOLOGY, priority 2021, published 2024)

Assays:
Ba/F3 EGFR L858R = assay: CellTiter-Glo cell viability, Ba/F3 EGFR L858R; format: cell-based; settings: 72 hours
Description: An experiment to measure the activity of the compounds of the present invention against the mutant Ba/F3 EGFR cell line was performed as follows using the CellTiter-Glo system sold by Promega. The CellTiter-Glo assay is a method to confirm the cell viability by measuring ATP present in cells in cell culture. The Ba/F3 EGFR L858R, Ba/F3 EGFR L858R/T790M, Ba/F3 EGFR L858R/T790M/C797S mutant cell line was used. The Ba/F3 EGFR L858R, Ba/F3 EGFR L858R/T790M, and Ba/F3 EGFR L858R/T790M/C797S mutant cell lines was cultured in RPMI containing 10% FBS and 1% penicillin-streptomycin with 1 μg of puromycin in an incubator at 37° C. and 5% CO2.
(§1) Analysis of the inhibitory ability effect of the compounds against EGFR was conducted according to the following analysis reaction recipe.
(§2) 2500 cells/90 μl were passaged and cultured in a 96-well cell culture plate, and after 24 hours, treated with the compound represented by Formula 1 at a concentration of 0, 0.01, 0.03, 0.1, 0.3, 1, 3, and 10 (μM). After reaction for 72 hours, the plate treated with the compound was left at room temperature for 30 minutes, then further treated with 100 μl of reagent, and shaken at room temperature for 10 minutes. Finally, the ratio of fluorescence values at 570 nm was obtained using the equipment to quantitatively measure and confirmed the inhibitory ability of the compounds. The measurement values measured at eight compound concentrations were analyzed using the Prism program (version 5.01, Graphpad Software, Inc.), and the IC50 value, which is an indicator of the inhibitory ability of the compound, was calculated.

[1] = test system: Ba/F3 EGFR V769_D770insASV; assay: CellTiter-Glo cell growth, Ba/F3 EGFR Ex20 insertion mutant; format: cell-based; settings: 72 hours
Description: An experiment to measure the activity of the compounds of the present invention against the Ba/F3 EGFR V769_D770insASV mutant cell line was performed as follows using the CellTiter-Glo system sold by Promega. The CellTiter-Glo assay is a method to confirm the cell viability by measuring ATP present in cells in cell culture. For the Ba/F3 EGFR V769_D770insASV mutant cell line, a cell line provided by Crown Bioscience was purchased and used. The Ba/F3 EGFR V769_D770insASV mutant cell line was cultured in RPMI containing 10% FBS and 1% penicillin-streptomycin with 1 μg/ml of puromycin in an incubator at 37° C. and 5% CO2.
Analysis of the inhibitory ability effect of the compounds against the EGFR mutant cell growth was conducted according to the following analysis reaction recipe.
as §2, with “1000 cells/100 μL were passaged” for “2500 cells/90 μl were passaged”, “[…]. After reaction” for “and 10 (μM). After reaction”, “with 100 μL of reagent,” for “with 100 μl of reagent,”, “confirmed the cell growth inhibitory ability” for “confirmed the inhibitory ability”, “of the cell growth inhibitory ability” for “of the inhibitory ability”

EGFR A763_Y764insFHEA = EGFR A763_Y764insFHEA (Homo sapiens (Human), UniProt P00533, INS763FHEA); assay: HTRF enzyme assay, EGFR Ex20 insertion mutant enzyme; format: biochemical; settings: recombinant enzyme, 37° C. 2 hours
Description: An experiment to measure the activity of the compounds of the present invention against EGFR mutant enzymes was performed as follows using the HTRF system sold by Cisbio. For the EGFR mutant enzyme, EGFR A763_Y764insFHEA enzyme, a recombinant protein provided by SignalChem was purchased and used.
The composition of the assay buffer used for measuring the activity was 50 mM Tris-HCl pH 7.5, 100 mM NaCl, 7.5 mM MgCl2, 3 mM KCl, 0.01% Tween 20, 0.1% BSA, and 1 mM DTT. Here, an enzyme reaction was performed using ATP at a concentration of […] and a peptide substrate labeled with biotin at a concentration of […]. Analysis of the inhibitory effect of the compounds against the EGFR activity was conducted according to the following analysis reaction recipe. • Component 1: 4 μL of an EGFR mutant enzyme • Component 2: 2 μL of a compound solution • Component 3: 4 μL of ATP and a peptide labeled with biotin
The enzyme reaction was started by first mixing Component 1 and Component 2 and then adding Component 3. After reaction at 37° C. for 2 hours, […] of measurement solution consisting of streptavidin-XL665 and europium-labeled anti-phosphotyrosine antibody provided by Cisbio was added to the enzyme reaction solution and reacted at room temperature for 1 hour. Finally, the ratio of fluorescence values at 615 nm and 665 nm was obtained using the Envision equipment from Perkin-Elmer to quantitatively measure the enzyme activity and confirmed the inhibitory ability of the compounds. The measurement values measured at seven compound concentrations were analyzed using the Prism program (version 5.01, Graphpad Software, Inc.), and the IC50 value, which is an indicator of the inhibitory ability of the compound, was calculated.

[2] = test system: Ba/F3 EGFR del19/T790M/C797S; assay: CellTiter-Glo cell viability, Ba/F3 EGFR del19/T790M/C797S; format: cell-based; settings: 72 hours
Description: An experiment to measure the activity of the compounds of the present invention against the mutant Ba/F3 EGFR cell line was performed as follows using the CellTiter-Glo system sold by Promega. The CellTiter-Glo assay is a method to confirm the cell viability by measuring ATP present in cells in cell culture. For the Ba/F3 EGFR del19, Ba/F3 EGFR del19/T790M, Ba/F3 del19/T790M/C797S mutant cell line, a cell line provided by Crown Bioscience was purchased and used. The Ba/F3 EGFR del19, Ba/F3 EGFR del19/T790M, Ba/F3 del19/T790M/C797S mutant cell line was cultured in RPMI containing 10% FBS and 1% penicillin-streptomycin with 1 μg of puromycin in an incubator at 37° C. and 5% CO2.
as §1
as §2, with “cells/90 μL” for “cells/90 μl”

Chain of EGFR A763_Y764insFHEA (P00533 other isoform, or with tags, fused parts or gaps del 1-694/ins FHEA behind 763 limits assumed): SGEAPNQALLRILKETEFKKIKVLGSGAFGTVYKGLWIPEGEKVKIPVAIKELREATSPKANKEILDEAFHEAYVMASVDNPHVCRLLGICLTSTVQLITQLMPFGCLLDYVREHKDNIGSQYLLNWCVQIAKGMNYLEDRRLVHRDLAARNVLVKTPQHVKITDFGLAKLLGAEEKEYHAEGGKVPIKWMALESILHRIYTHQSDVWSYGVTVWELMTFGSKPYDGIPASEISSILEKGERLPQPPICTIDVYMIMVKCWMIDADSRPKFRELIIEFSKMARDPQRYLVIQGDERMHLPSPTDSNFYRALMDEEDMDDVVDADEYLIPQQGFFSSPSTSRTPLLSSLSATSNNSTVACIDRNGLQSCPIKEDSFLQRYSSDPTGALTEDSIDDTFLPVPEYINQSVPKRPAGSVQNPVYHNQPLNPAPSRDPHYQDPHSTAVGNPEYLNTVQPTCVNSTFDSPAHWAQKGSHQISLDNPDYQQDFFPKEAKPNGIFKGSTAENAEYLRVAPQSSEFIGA

Row | IC50 (Ba/F3 EGFR L858R) [nM] | IC50 [1] [nM] | IC50 (EGFR A763_Y764insFHEA) [nM] | IC50 [2] [nM] | SMILES
1 | < 30 | 210 | 1.7 | < 100 | COc1cc(N2CCC(N3CCN(C)CC3)CC2)ccc1Nc1ncc(Cl)c(Nc2cccc3c2N(S(C)(=O)=O)CC3)n1 [Example 2, 5-chloro-N2-(2-methoxy-4-(4-(4-methylpiperazin-1-yl)piperidin-1-yl)phenyl)-N4-(1-(methylsulfonyl)indolin-7-yl)pyrimidine-2,4-diamine]
2 | < 30 | 360 | 11 | < 30 | COc1cc(N2CCC(N3CCN(C)CC3)CC2)ccc1Nc1ncc(Cl)c(Nc2cccc3c2N(S(C)(=O)=O)CCC3)n1 [Example 5, 5-chloro-N2-(2-methoxy-4-(4-(4-methylpiperazin-1-yl)piperidin-1-yl)phenyl)-N4-(1-(methylsulfonyl)-1,2,3,4-tetrahydroquinolin-8-yl)pyrimidine-2,4-diamine]
